Patent publication US12697325B2 (TENNOR THERAPEUTICS (SUZHOU) LIMITED, priority 2021, dated 2026)
Read-outs that look alike come from different tables or passages of the source.

Tests used:
[1] = 0.5 g, q8 h via infusion for 2 h; cited from earlier work
[2] = Pharmacokinetics in plasma and bronchoalveolar lavage fluid of female CD-1 mice; format: in vivo; details: female, CD-1, mouse
Experimental: An appropriate amount of the test drug was accurately weighed and mixed with the appropriate volume of vehicle (5% DMSO+0.5% Tween 80 in normal saline) to obtain a clear solution for the test in Table 9. The formulation solution for injection was prepared to sterile filtration through a 0.22 μm filter prior to administration. The mice were dosed with the drug within 30 min after the formulated solution for injection was prepared. A 1.5 mL of the formulation solution for injection was transferred into a polypropylene microcentrifuge tube for dose verification by LC/UV or LC-MS/MS.
All blood samples were transferred to pre-frozen EDTA-K2 tubes and placed on wet ice until centrifugation. […]
Plasma: approximately 100 μL of blood sample was transferred into pre-cooled commercial EDTA-K2 tubes and placed on wet ice until centrifugation. After the blood samples were centrifuged at approximately 4° C. and 3, 200 g for 10 min, plasma was collected and transferred to pre-labeled 96-well plates or polypropylene tubes, flash frozen on dry ice, and stored at ≤−60° C. until the analysis by LC-MS/MS.
Serum: approximately 100 μL of blood sample was transferred into a tube without anticoagulant and placed on wet ice for approximately 30 min and centrifuged at 4° C. and 3,000 g for 10 min, and the serum was collected and transferred into pre-labeled PP tubes placed on wet ice. After the completion of all the collections, serum samples were stored at −60° C. until being sent to the animal experimental team to determine urea concentration.
Bronchoalveolar lavage fluid (BALF): pre-cooled tracheo-alveolar lavage fluid was injected into the trachea or predefined bronchi. After a full expansion of the lung tissue, the lavage fluid was slowly drawn out with a syringe 30 s later. The lung was lavaged three times. During the last lavage, the lung tissue was gently squeezed to restore the fluid. To prevent contamination of other lung tissues, the corresponding bronchi were ligated. Both lungs of the mice were perfused with 0.8 mL.
[…] Approximately 200 μL of the BALF samples were transferred into a polypropylene tube, rapidly frozen on dry ice, maintained at ≤−60° C., and sent to the animal experimental team to determine urea concentration. The remaining BALF samples (approximately 600 μL) were rapidly frozen on dry ice and maintained at ≤−60° C. until being submitted for drug concentration analysis by LC-MS/MS.

[3] = Stability of sulbactam sodium and avibactam sodium in different pH buffers (HPLC purity); format: physicochemical; details: 20° C., 24 h; for Purity in pH buffer (monomer): purity 100% at 0 h, alone; for Purity in pH buffer (in mixture): mixture 4:1 (sulbactam sodium 1 mg/mL, avibactam sodium 0.25 mg/mL)
[4] = test system: Acinetobacter baumannii strains; experiment: Minimum inhibitory concentration (CLSI M07), Example 2, 20 strains; format: cell-based
Experimental: The minimum inhibitory concentration (MIC) was determined in accordance with the requirements of the Clinical and Laboratory Standards Institute (CLSI) M07 (for aerobic bacteria).
3.1 The compounds were diluted with DMSO up to 100 times of the highest concentration tested.
The steps of manual dilution are as follows (example): firstly, the compound or antibiotic was diluted to 100 times of the maximum final concentration tested, then 60 μL of compound mother liquor was added to the first column of the 96-well plate, and 30 μL of DMSO was added to each well in the second to the 12th column; 30 μL of the liquid was transferred from the first column to the second column. After being pipetted up and down to even, 30 μL was transferred to the third column, and was diluted in sequence at a 2-fold gradient for a total of 10 times; then 30 μL was removed from each well in the 11th column, then a compound solution diluted at 2-fold gradient was obtained and 1 μL was transferred to a 96-well test plate.
Aerobic bacteria: the strains were inoculated on MHA one day in advance and incubated overnight at 37° C. On the day of the assay, 5-6 single colonies were picked and suspended evenly in saline, and the bacterial concentration was adjusted to the turbidity of 0.5 McFarland standard (concentration is about 1×10^8 CFU/mL). The bacterial suspension was diluted at 200-fold with the corresponding liquid culture medium (Table 1), i.e., the bacterial concentration was ~5×10^5 CFU/ml, and then 100 μL of the liquid was transferred to a 96-well round bottom plate (the 96-well plate with compound prepared in 4.2, Echo method) to obtain the test plate. If the compound was manually diluted, then 99 μL of the solution was transferred into a 96-well round bottom plate. The 96-well round bottom plate obtained above was placed into an incubator at 37° C. and 85% humidity to incubate for 20 h.

[5] = cited from earlier work

NC(=O)[C@@H]1CC[C@@H]2CN1C(=O)N2OS(=O)(=O)O [Avibactam, [(2S,5R)-2-carbamoyl-7-oxo-1,6-diazabicyclo [3.2.1]oct-6-yl] bisulfate]
Part of the dosing interval with plasma concentration above 4 μg/mL [1]: 50%
Part of the dosing interval with plasma concentration above 8 μg/mL [1]: 30%
Kp at 0.5 h ([2]; BALF/plasma, intravenous, 25 mg/kg, 0.50 h, read-out: BALF/plasma ratio Mean): 0.0474
Kp at 3 h ([2]; BALF/plasma, intravenous, 150 mg/kg, 3.00 h, read-out: BALF/plasma ratio Mean): 0.0319
Kp at 5 h ([2]; BALF/plasma, intravenous, 150 mg/kg, 5.00 h, read-out: BALF/plasma ratio Mean): 0.153
Kp at 8 h ([2]; BALF/plasma, intravenous, 150 mg/kg, 8.00 h, read-out: BALF/plasma ratio Mean): 0.211
concentration at 0.5 h ([2]; ELF, intravenous, 0.50 h, group 01 (25 mg/kg per Table 9), read-out: ELF concentration Mean ± SD): 5400 ± 2390 ng/mL
concentration at 3 h ([2]; ELF, intravenous, 3.00 h, 150 mg/kg, read-out: ELF concentration Mean ± SD): 4730 ± 2410 ng/mL
concentration at 5 h ([2]; ELF, intravenous, 5.00 h, 150 mg/kg, read-out: ELF concentration Mean ± SD): 129 ± 75.2 ng/mL
concentration at 8 h ([2]; ELF, intravenous, 8.00 h, 150 mg/kg, read-out: ELF concentration Mean ± SD): 22.2 ng/mL
concentration at 0.5 h ([2]; bronchoalveolar lavage fluid (BALF), intravenous, 0.50 h, group 01 (25 mg/kg per Table 9), read-out: BALF concentration Mean ± SD): 849 ± 210 ng/mL
concentration at 3 h ([2]; bronchoalveolar lavage fluid (BALF), intravenous, 3.00 h, 150 mg/kg, read-out: BALF concentration Mean ± SD): 626 ± 459 ng/mL
concentration at 5 h ([2]; bronchoalveolar lavage fluid (BALF), intravenous, 5.00 h, 150 mg/kg, read-out: BALF concentration Mean ± SD): 19 ± 11.6 ng/mL
concentration at 8 h ([2]; bronchoalveolar lavage fluid (BALF), intravenous, 8.00 h, 150 mg/kg, read-out: BALF concentration Mean ± SD): 5.37 ng/mL
concentration at 0.25 h ([2]; plasma, 0.25 h, group 01 (25 mg/kg per Table 9), intravenous dripping, read-out: Plasma concentration Mean ± SD): 16500 ± 2260 ng/mL
concentration at 0.5 h ([2]; plasma, 0.50 h, group 01 (25 mg/kg per Table 9), intravenous dripping, read-out: Plasma concentration Mean ± SD): 17900 ± 2040 ng/mL
concentration at 1 h ([2]; plasma, 1.00 h, 150 mg/kg intravenous dripping, read-out: Plasma concentration Mean ± SD): 18800 ± 3070 ng/mL
concentration at 3 h ([2]; plasma, 3.00 h, 150 mg/kg intravenous dripping, read-out: Plasma concentration Mean ± SD): 18300 ± 4530 ng/mL
concentration at 4 h ([2]; plasma, 4.00 h, 150 mg/kg intravenous dripping, read-out: Plasma concentration Mean ± SD): 285 ± 226 ng/mL
concentration at 5 h ([2]; plasma, 5.00 h, 150 mg/kg intravenous dripping, read-out: Plasma concentration Mean ± SD): 123 ± 34.8 ng/mL
concentration at 6 h ([2]; plasma, 6.00 h, 150 mg/kg intravenous dripping, read-out: Plasma concentration Mean ± SD): 57.8 ± 3.1 ng/mL
concentration at 8 h ([2]; plasma, 8.00 h, 150 mg/kg intravenous dripping, read-out: Plasma concentration Mean ± SD): 28.5 ± 9.52 ng/mL
Purity in pH buffer (monomer) ([3]; pH 4.0 buffer): −24.20%
Purity in pH buffer (in mixture) ([3]; pH 4.0 buffer): −23.74%
Purity in pH buffer (monomer) ([3]; pH 4.5 buffer): −2.31%
Purity in pH buffer (in mixture) ([3]; pH 4.5 buffer): −1.42%
Purity in pH buffer (monomer) ([3]; pH 5.0 buffer): −0.71%
Purity in pH buffer (in mixture) ([3]; pH 5.0 buffer): −0.99%
Purity in pH buffer (monomer) ([3]; pH 5.5 buffer): −0.77%
Purity in pH buffer (in mixture) ([3]; pH 5.5 buffer): −0.54%
Purity in pH buffer (monomer) ([3]; pH 6.0 buffer): −1.75%
Purity in pH buffer (in mixture) ([3]; pH 6.0 buffer): −1.76%
Purity in pH buffer (monomer) ([3]; pH 7.3 buffer): −0.81%
Purity in pH buffer (in mixture) ([3]; pH 7.3 buffer): −1.06%
Purity in pH buffer (monomer) ([3]; pH 8.0 buffer): −8.87%
Purity in pH buffer (in mixture) ([3]; pH 8.0 buffer): −8.81%
MIC of the strain BAA-1795 (component in the combination) ([4]; strain BAA-1795, sulbactam/avibactam 4:1, concentration of the named component): 2 µg/mL
MIC90 of the single component in the combination ([4]; sulbactam sodium:avibactam sodium = 4:1, concentration of the named component): 4 µg/mL
MIC50 of the single component in the combination ([4]; sulbactam sodium:avibactam sodium = 4:1, concentration of the named component, Examples 1 and 2): 2 µg/mL
Protein binding [5]: ~8%
